Assays:
Experiment in all cases: Test C preemergence
Type in all cases: in vivo
[1] = system: crabgrass (Digitaria sanguinalis)
Outline: (§1)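 Preemergence: seeds sown then treated. Postemergence: plants 2–18 cm, 1- to 4-leaf. Both with surfactant-containing solvent formulation; visual injury scored 0–100 after 12–14 d.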

[2] = system: giant foxtail (Setaria faberii)
Outline: as §1

[3] = system: yellow nutsedge (Cyperus esculentus)
Outline: as §1

[4] = system: Sunflower; conditions: Rate 125 g/ha; scale 0 to 100, 0 no effect, 100 complete control
[5] = system: Nightshade
[6] = system: lambsquarters (Chenopodium album)
Outline: as §1

[7] = system: morningglory (Ipomoea hederacea)
Outline: as §1

[8] = system: soybean (Glycine max)
Outline: as §1

[9] = system: pigweed (Amaranthus retroflexus)
Outline: as §1

[10] = system: johnsongrass (Sorghum halepense)
Outline: as §1

[11] = system: kochia (Kochia scoparia)
Outline: as §1

[12] = system: Surinam grass (Brachiaria decumbens)
Outline: as §1

[13] = system: corn (Zea mays)
Outline: as §1

[14] = system: common ragweed (Ambrosia elatior)
Outline: as §1

[15] = system: goosegrass (Eleusine indica)
Outline: as §1

[16] = system: velvetleaf (Abutilon theophrasti)
Outline: as §1

[17] = system: woolly cupgrass (Eriochloa villosa)
Outline: as §1

[18] = system: bermudagrass (Cynodon dactylon)
Outline: as §1

[19] = system: cocklebur (Xanthium strumarium)
Outline: as §1

[20] = system: Sunflower; conditions: Rate 250 g/ha, scale 0 to 100, 0 no effect, 100 complete control
[21] = Rate 125 g/ha, scale 0 to 100, 0 no effect, 100 complete control
[22] = preemergence, Rate 31 g/ha, scale 0 to 100
[23] = preemergence, Rate 62 g/ha, scale 0 to 100
[24] = preemergence, Rate 250 g/ha, scale 0 to 100, 0 no effect, 100 complete control

Compound: CC(C)OC(=O)c1cccc(N2CCC(n3ccc(C(C)(C)C)n3)C2=O)c1 (centres unmarked) [Compound 124]
- Plant response rating, Crabgrass [1, 21]: 100
- Plant response rating, Crabgrass [1, 22]: 80
- Plant response rating, Crabgrass [1, 23]: 90
- Plant response rating, Crabgrass [1, 24]: 100
- Plant response rating, Foxtail, Giant [2, 21]: 20
- Plant response rating, Foxtail, Giant [2, 22]: 0
- Plant response rating, Foxtail, Giant [2, 23]: 0
- Plant response rating, Foxtail, Giant [2, 24]: 85
- Plant response rating, Nutsedge [3, 21]: 0
- Plant response rating, Nutsedge [3, 22]: 0
- Plant response rating, Nutsedge [3, 23]: 0
- Plant response rating, Nutsedge [3, 24]: 0
- Plant response rating, Sunflower [4]: 0
- Plant response rating, Nightshade ([5]; Rate 31 g/ha, scale 0 to 100): 0
- Plant response rating, Nightshade ([5]; Rate 62 g/ha, scale 0 to 100): 0
- Plant response rating, Nightshade [5, 21]: 20
- Plant response rating, Nightshade ([5]; Rate 250 g/ha, scale 0 to 100, 0 no effect, 100 complete control): 100
- Plant response rating, Lambsquarters [6, 21]: 100
- Plant response rating, Lambsquarters [6, 22]: 45
- Plant response rating, Lambsquarters [6, 23]: 50
- Plant response rating, Lambsquarters [6, 24]: 100
- Plant response rating, Morningglory [7, 21]: 0
- Plant response rating, Morningglory [7, 22]: 0
- Plant response rating, Morningglory [7, 23]: 0
- Plant response rating, Morningglory [7, 24]: 0
- Plant response rating, Soybean [8, 21]: 0
- Plant response rating, Soybean [8, 22]: 0
- Plant response rating, Soybean [8, 23]: 0
- Plant response rating, Soybean [8, 24]: 0
- Plant response rating, Pigweed [9, 21]: 0
- Plant response rating, Pigweed [9, 22]: 0
- Plant response rating, Pigweed [9, 23]: 0
- Plant response rating, Pigweed [9, 24]: 50
- Plant response rating, Johnsongrass [10, 21]: 20
- Plant response rating, Johnsongrass [10, 22]: 0
- Plant response rating, Johnsongrass [10, 23]: 15
- Plant response rating, Johnsongrass [10, 24]: 30
- Plant response rating, Kochia [11, 21]: 60
- Plant response rating, Kochia [11, 22]: 0
- Plant response rating, Kochia [11, 23]: 40
- Plant response rating, Kochia [11, 24]: 90
- Plant response rating, Surinam grass [12, 21]: 0
- Plant response rating, Surinam grass [12, 22]: 0
- Plant response rating, Surinam grass [12, 23]: 0
- Plant response rating, Surinam grass [12, 24]: 10
- Plant response rating, Corn [13, 21]: 0
- Plant response rating, Corn [13, 22]: 0
- Plant response rating, Corn [13, 23]: 0
- Plant response rating, Corn [13, 24]: 0
- Plant response rating, Ragweed, Common [14, 21]: 0
- Plant response rating, Ragweed, Common [14, 22]: 0
- Plant response rating, Ragweed, Common [14, 23]: 0
- Plant response rating, Ragweed, Common [14, 24]: 0
- Plant response rating, Goosegrass [15, 21]: 40
- Plant response rating, Goosegrass [15, 22]: 0
- Plant response rating, Goosegrass [15, 23]: 0
- Plant response rating, Goosegrass [15, 24]: 60
- Plant response rating, Velvetleaf [16, 21]: 0
- Plant response rating, Velvetleaf [16, 22]: 0
- Plant response rating, Velvetleaf [16, 23]: 0
- Plant response rating, Velvetleaf [16, 24]: 0
- Plant response rating, Cupgrass, Woolly [17, 21]: 50
- Plant response rating, Cupgrass, Woolly [17, 22]: 0
- Plant response rating, Cupgrass, Woolly [17, 23]: 30
- Plant response rating, Cupgrass, Woolly [17, 24]: 60
- Plant response rating, Bermudagrass [18, 21]: 80
- Plant response rating, Bermudagrass [18, 22]: 0
- Plant response rating, Bermudagrass [18, 23]: 60
- Plant response rating, Bermudagrass [18, 24]: 100
- Plant response rating, Cocklebur [19, 21]: 0
- Plant response rating, Cocklebur [19, 22]: 0
- Plant response rating, Cocklebur [19, 23]: 0
- Plant response rating, Cocklebur [19, 24]: 0
- Plant response rating, Sunflower [20]: 0
